Earlier results in US4351830A (priority 1980, dated 1982).

Experiments:
[1] = literature
[2] = test system: bacterial infections; conditions: literature

In the case of `CC(=O)N[C@H]1C(O)O[C@H](CO)[C@@H](O)[C@@H]1O[C@H](C)C(=O)N[C@@H](C)C(=O)N[C@H](CCC(N)=O)C(=O)O` (stereo partly drawn) [N-acetylmuramyl-L-alanyl-D-glutamine], the adjuvant effect [1] is listed as “high adjuvant effect”.

For `CC(=O)N[C@H]1C(O)O[C@H](CO)[C@@H](O)[C@@H]1O[C@H](C)C(=O)N[C@@H](C)C(=O)N[C@H](CCC(=O)O)C(N)=O` (stereo partly drawn) [N-acetylmuramyl-L-alanyl-D-isoglutamine], the adjuvant effect [1] is listed as “high adjuvant effect”.

For orthobenzoic acid oxide, the “protective activity against bacterial infections” value [2] is listed as “exhibits a protective activity against bacterial infections”.
